Source: US20250230138A1, “COMPOUNDS HAVING A T-STRUCTURE FORMED BY AT LEAST FOUR CYCLES FOR USE IN THE TREATMENT OF CANCER AND OTHER INDICATIONS” (TheRas, Inc., priority 2022, published 2025)
Like-named read-outs stand apart in the source and are kept apart here.

Key:
[1] = target: Cys242 in human PIK3CA (157-299) (Homo sapiens (Human), UniProt P42336); assay: Covalent modification assay using MALDI-TOF MS; type: biochemical; conditions: 4 h reaction time point
Procedure, shortened: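 Covalent adduct formation was read by linear-mode MALDI-TOF with sinapinic acid matrix, reported as modified-protein peak height divided by total protein peak heights. Reactions held PIK3CA (157-299) at 1 or 3.33 μM in HEPES/NaCl/MgCl2 buffer, pH 7.3, sampled after 15 min to 4 h at room temperature.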

pAKT in BT474 cells = assay: Cell-based pAKT HTRF assay in BT474 cells; conditions: BT474 cells, 4 hr incubation, read-out: pAKT inhibition IC50 in BT474 cells
Procedure, shortened: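 Cells grown in DMEM with 10% FBS were exposed to compounds for 4 hr in 0.25% DMSO, using a 9-point, 3-fold dilution series that starts at 3 μM. Lysates were incubated with d2 and Eu Cryptate antibodies for 4–24 h at room temperature, and HTRF was read at 615 nm emission.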

[2] = 1 μM protein target, 1:5 protein to compound ratio (compounds 853-1279)
[3] = 3.33 μM protein target, 1:7.5 protein to compound ratio (compounds 1-852)
[4] = Homo sapiens, BT-474, Compounds 10-999

Cys242 in human PIK3CA (157-299), sequence (P42336 157-299): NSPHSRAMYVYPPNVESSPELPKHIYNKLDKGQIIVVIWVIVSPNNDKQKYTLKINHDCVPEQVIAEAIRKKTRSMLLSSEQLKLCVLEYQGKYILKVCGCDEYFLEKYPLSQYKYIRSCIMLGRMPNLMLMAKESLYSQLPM

SMILES: C=CC(=O)N1CCc2ccc(-c3nc(-c4cn(C)cn4)c4ccsc4c3-c3c(F)cc(F)cc3OCCO)cc2C1 (single isomer, unassigned) [Compound 1000]
- % of modification [1, 2]: A (percent of modification of PIK3CA protein ≥75%)
- IC50 (pAKT in BT474 cells; Compounds 1000-1279): < 100 nM

SMILES: C=CC(=O)N1Cc2cc(-c3nc(-c4cnc5c(c4)CN(C)C5=O)c4ccsc4c3-c3c(F)cc(F)cc3OCCOC)nn2C[C@H]1C [Compound 687]
- % of modification [1, 3]: A (percent of modification of PIK3CA protein ≥75%)
- IC50 (pAKT in BT474 cells; Compounds 10-999): < 100 nM

SMILES: C=CC(=O)N1CCc2nc(-c3nc(-c4ccc(C(C)(C)C#N)cc4)c4ccsc4c3-c3c(F)cc(F)cc3OCCOC)sc2C1 [Compound 439]
- % of modification [1, 3]: D (percent of modification <25%)
- IC50 (pAKT in BT474 cells; Compounds 10-999): 100 to 1000 nM

SMILES: C=CC(=O)N1Cc2cc(-c3nc(-c4ccc5c(c4)CCN(C)C5)c4ccsc4c3-c3c(F)cc(F)cc3OC)nn2[C@@H](C)C1 [Compound 562]
- % of modification [1, 3]: C (25%≤percent of modification <50%)
- IC50 (pAKT in BT474 cells; Compounds 10-999): 100 to 1000 nM

SMILES: C=CC(=O)N1CC[C@H](n2cc(-c3nc(-c4ccc5c(c4)CNC5=O)c4ccsc4c3-c3c(F)cc(F)cc3OC(C)C)cn2)C1 [Compound 334, 5-[7-(2,4-difluoro-6-isopropoxy-phenyl)-6-[1-[(3S)-1-prop-2-enoylpyrrolidin-3-yl]pyrazol-4-yl]thieno[3,2-c]pyridin-4-yl]isoindolin-1-one]
- % of modification [1, 3]: A (percent of modification of PIK3CA protein ≥75%)
- IC50 (pAKT in BT474 cells; [4]): < 100 nM

SMILES: C=CC(=O)N1CCc2ncc(-c3nc(-c4ccc5c(c4)C(O)CC5)c4ccsc4c3-c3c(F)cc(F)cc3OCCOC)cc2C1 (centres unmarked) [Compound 397]
- % of modification [1, 3]: A (percent of modification of PIK3CA protein ≥75%)
- IC50 (pAKT in BT474 cells; Compounds 10-999): < 100 nM

SMILES: C=CC(=O)N1CCc2nc(-c3nc(-c4ccc5c(c4)CCNC5=O)c4ccsc4c3-c3ccc(F)cc3OCCOC)sc2C1 [Compound 118, 6-[7-[4-fluoro-2-(2-methoxyethoxy)phenyl]-6-(5-prop-2-enoyl-6,7-dihydro-4H-thiazolo[5,4-c]pyridin-2-yl)thieno[3,2-c]pyridin-4-yl]-3,4-dihydro-2H-isoquinolin-1-one]
- % of modification [1, 3]: A (percent of modification of PIK3CA protein ≥75%)
- IC50 (pAKT in BT474 cells; [4]): < 100 nM

SMILES: C=CC(=O)N1CCc2ncc(-c3nc(-c4cccc(C#N)c4)c4ccsc4c3-c3c(F)cc(F)cc3OCCOC)cc2C1 [Compound 380]
- % of modification [1, 3]: A (percent of modification of PIK3CA protein ≥75%)
- IC50 (pAKT in BT474 cells; Compounds 10-999): < 100 nM

SMILES: C=CC(=O)N1CCn2ncc(-c3nc(-c4ccc5c(c4)CCNC5)c4ccsc4c3-c3ccc(F)cc3OCCOC)c2C1 [Compound 77]
- % of modification [1, 3]: D (percent of modification <25%)
- IC50 (pAKT in BT474 cells; Compounds 10-999): > 3000 nM

SMILES: C=CC(=O)N1CCn2nc(-c3nc(-c4ccc5c(c4)CCNC5=O)c4ccsc4c3-c3ccc(F)cc3OCCOC)nc2C1 [Compound 184]
- % of modification [1, 3]: A (percent of modification of PIK3CA protein ≥75%)
- IC50 (pAKT in BT474 cells; Compounds 10-999): < 100 nM

SMILES: C=CC(=O)N1CCn2nc(-c3nc(C4CCN(C(C)C)CC4)c4ccsc4c3-c3ccc(F)cc3OC(C)C)cc2C1 [Compound 240]
- % of modification [1, 3]: A (percent of modification of PIK3CA protein ≥75%)
- IC50 (pAKT in BT474 cells; Compounds 10-999): < 100 nM

SMILES: C=CC(=O)N1CCc2ncc(-c3nc(-c4cnc(C)n4C)c4ccsc4c3-c3c(F)cc(F)cc3OC(C)C)cc2C1 [Compound 412]
- % of modification [1, 3]: A (percent of modification of PIK3CA protein ≥75%)
- IC50 (pAKT in BT474 cells; Compounds 10-999): < 100 nM

SMILES: C=CC(=O)N1CCn2nc(-c3nc(-c4ccc5c(c4)CCNC5=O)c4ccsc4c3-c3ccc(F)cc3OCCOC)cc2C1 [Compound 189, 6-[7-[4-fluoro-2-(2-methoxyethoxy)phenyl]-6-(5-prop-2-enoyl-6,7-dihydro-4H-pyrazolo[1,5-a]pyrazin-2-yl)thieno[3,2-c]pyridin-4-yl]-3,4-dihydro-2H-isoquinolin-1-one]
- % of modification [1, 3]: A (percent of modification of PIK3CA protein ≥75%)
- IC50 (pAKT in BT474 cells; [4]): < 100 nM

SMILES: C=CC(=O)N1CCn2nc(-c3nc(-c4ccc5c(c4)C(=O)NC5)c4ccsc4c3-c3c(F)cc(F)cc3OCCO)cc2[C@H]1C [Compound 852, 6-((S)-6-((R)-5-acryloyl-4-methyl-4,5,6,7-tetrahydropyrazolo[1,5-a]pyrazin-2-yl)-7-(2,4-difluoro-6-(2-hydroxyethoxy)phenyl)thieno[3,2-c]pyridin-4-yl)isoindolin-1-one]
- % of modification [1, 3]: A (percent of modification of PIK3CA protein ≥75%)
- IC50 (pAKT in BT474 cells; [4]): < 100 nM

SMILES: C=CC(=O)N1CCn2nc(-c3nc(-c4ccc5c(c4)CCNC5=O)c4ccsc4c3-c3c(F)cc(F)cc3OCCO)cc2[C@H]1C [Compound 876, 6-((S)-6-((R)-5-acryloyl-4-methyl-4,5,6,7-tetrahydropyrazolo[1,5-a]pyrazin-2-yl)-7-(2,4-difluoro-6-(2-hydroxyethoxy)phenyl)thieno[3,2-c]pyridin-4-yl)-3,4-dihydroisoquinolin-1(2H)-one]
- % of modification [1, 2]: A (percent of modification of PIK3CA protein ≥75%)
- IC50 (pAKT in BT474 cells; [4]): < 100 nM

SMILES: C=CC(=O)N1Cc2cc(-c3nc(-c4ccc5c(c4)CCN(C)C5)c4ccsc4c3-c3c(F)cc(F)cc3OC[C@@H](C)O)nn2C[C@H]1C [Compound 605]
- % of modification [1, 3]: A (percent of modification of PIK3CA protein ≥75%)
- IC50 (pAKT in BT474 cells; Compounds 10-999): < 100 nM

SMILES: C=CC(=O)N1CCn2nc(-c3nc(-c4ccc5c(c4)CNC5=O)c4ccsc4c3-c3c(F)cc(F)cc3OC[C@@H](C)O)cc2[C@H]1C [Compound 762]
- % of modification [1, 3]: A (percent of modification of PIK3CA protein ≥75%)
- IC50 (pAKT in BT474 cells; Compounds 10-999): < 100 nM

SMILES: C=CC(=O)N1Cc2cc(-c3nc(-c4ccc5nn(C)cc5c4)c4ccsc4c3-c3c(F)cc(F)cc3OC)nn2[C@@H](C)C1 [Compound 847]
- % of modification [1, 3]: A (percent of modification of PIK3CA protein ≥75%)
- IC50 (pAKT in BT474 cells; Compounds 10-999): < 100 nM

SMILES: C=C(F)C(=O)N1CCn2nc(-c3nc(-c4ccc(=O)n(C)c4)c4ccsc4c3-c3ccc(F)cc3OC(C)C)nc2C1 [Compound 267]
- % of modification [1, 3]: A (percent of modification of PIK3CA protein ≥75%)
- IC50 (pAKT in BT474 cells; Compounds 10-999): 100 to 1000 nM

SMILES: C=CC(=O)N1CCc2ncc(-c3nc(-c4cccc(C#N)c4)c4ccsc4c3-c3c(F)cc(F)cc3OC(C)C)cc2C1 [Compound 381]
- % of modification [1, 3]: A (percent of modification of PIK3CA protein ≥75%)
- IC50 (pAKT in BT474 cells; Compounds 10-999): < 100 nM

SMILES: C=CC(=O)N1CCn2nc(-c3nc(-c4ccc(C(=O)NCC5CN(C)C5)cc4)c4ccsc4c3-c3c(F)cc(F)cc3OCCOC)cc2C1C (centres unmarked) [Compound 1190]
- % of modification [1, 2]: A (percent of modification of PIK3CA protein ≥75%)
- IC50 (pAKT in BT474 cells; Compounds 1000-1279): 100 to 1000 nM

SMILES: C=CC(=O)N1Cc2cc(-c3nc(-c4cnc5c(cnn5C)c4)c4ccsc4c3-c3c(F)cc(F)cc3OCCOC)nn2C[C@H]1C [Compound 797]
- % of modification [1, 3]: A (percent of modification of PIK3CA protein ≥75%)
- IC50 (pAKT in BT474 cells; Compounds 10-999): < 100 nM

SMILES: C=CC(=O)N1CCn2nc(-c3nc(-c4ccc5nn(C)cc5c4)c4ccsc4c3-c3c(F)cc(F)cc3OCCOC)cc2[C@H]1C [Compound 749]
- % of modification [1, 3]: A (percent of modification of PIK3CA protein ≥75%)
- IC50 (pAKT in BT474 cells; Compounds 10-999): < 100 nM

SMILES: C=CC(=O)N1CCn2nc(-c3nc(-c4cnc5c(c4)CN(C(C)C)CC5)c4ccsc4c3-c3c(F)cc(F)cc3OCCOC)cc2C1C (centres unmarked) [Compound 1093]
- % of modification [1, 2]: A (percent of modification of PIK3CA protein ≥75%)
- IC50 (pAKT in BT474 cells; Compounds 1000-1279): < 100 nM

SMILES: C=C(F)C(=O)N1CCn2nc(-c3nc(-c4ccc5c(c4)CCN(C(C)C)C5)c4ccsc4c3-c3ccc(F)cc3OC(C)C)cc2C1 [Compound 294]
- % of modification [1, 3]: A (percent of modification of PIK3CA protein ≥75%)
- IC50 (pAKT in BT474 cells; Compounds 10-999): < 100 nM
